Measurements published in patent US7880007B2, “Bicyclic substituted phenyl piperidine modulators of muscarinic receptors” (Vertex Pharmaceuticals Incorporated, priority 2004, dated 2011).

Key:
Format in all cases: cell-based
M1 muscarinic receptor = molecular target: T1, M1 muscarinic receptor (Homo sapiens, UniProt P11229); experiment: Functional mobilization of intracellular calcium (FLIPR), M1-CHO cells; details: for Emax: 100% efficacy = maximum response obtained with the Carbachol control; for M1 Activity: M1-CHO cells, calcium mobilization (FLIPR)
T1 construct: expressed in transfected cells; host or cells: CHO (M1-CHO)
T1 sequence (P11229 1-460): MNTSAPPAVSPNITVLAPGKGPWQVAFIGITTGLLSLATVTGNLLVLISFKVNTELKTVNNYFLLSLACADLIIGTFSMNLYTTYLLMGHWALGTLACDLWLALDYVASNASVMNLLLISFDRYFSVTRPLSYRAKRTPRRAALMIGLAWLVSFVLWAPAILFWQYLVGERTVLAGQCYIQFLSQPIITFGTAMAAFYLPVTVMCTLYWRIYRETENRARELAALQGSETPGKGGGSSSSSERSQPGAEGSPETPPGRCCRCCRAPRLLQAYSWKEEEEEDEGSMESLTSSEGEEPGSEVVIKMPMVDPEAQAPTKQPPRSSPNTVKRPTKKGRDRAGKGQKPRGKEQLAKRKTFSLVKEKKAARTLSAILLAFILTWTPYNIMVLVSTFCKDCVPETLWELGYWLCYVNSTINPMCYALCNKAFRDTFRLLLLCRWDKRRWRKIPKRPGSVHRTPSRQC
Method in brief: (§1)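 CHO cells expressing human M1–M4 receptors loaded with Fluo-3 AM or Calcium 3 dye (1 mM probenecid, pH 7.4); 0.5% DMSO final. Agonist mode: compound added directly; antagonist mode: 15 min pre-incubation or co-application, then carbachol at EC80. Fluorescence read 60 s on FLIPR; efficacy relative to carbachol maximum.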

M2 muscarinic receptor = molecular target: T2, M2 muscarinic receptor (Homo sapiens, UniProt P08172); experiment: Functional mobilization of intracellular calcium (FLIPR), M2-CHO cells; details: for Emax: 100% efficacy = maximum response obtained with the Carbachol control; for M2 Activity: M2-CHO cells, calcium mobilization (FLIPR)
T2 construct: expressed in transfected cells; host or cells: CHO (M2-CHO)
T2 sequence (P08172 1-466): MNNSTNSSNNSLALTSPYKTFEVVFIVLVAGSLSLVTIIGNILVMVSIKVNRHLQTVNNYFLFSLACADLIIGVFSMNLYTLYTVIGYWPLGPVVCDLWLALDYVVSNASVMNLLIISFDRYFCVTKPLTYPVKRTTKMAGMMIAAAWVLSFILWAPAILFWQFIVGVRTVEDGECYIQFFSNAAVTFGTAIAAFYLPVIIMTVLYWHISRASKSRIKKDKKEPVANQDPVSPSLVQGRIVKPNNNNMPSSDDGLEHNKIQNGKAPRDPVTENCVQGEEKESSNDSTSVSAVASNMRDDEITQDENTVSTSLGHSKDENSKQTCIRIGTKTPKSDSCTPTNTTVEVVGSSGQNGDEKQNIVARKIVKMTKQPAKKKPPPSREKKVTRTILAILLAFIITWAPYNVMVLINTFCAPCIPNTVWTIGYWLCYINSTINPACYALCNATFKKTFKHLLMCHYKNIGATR
Method in brief: as §1

M3 muscarinic receptor = molecular target: T3, M3 muscarinic receptor (Homo sapiens, UniProt P20309); experiment: Functional mobilization of intracellular calcium (FLIPR), M3-CHO cells; details: for Emax: 100% efficacy = maximum response obtained with the Carbachol control; for M3 Activity: M3-CHO cells, calcium mobilization (FLIPR)
T3 construct: expressed in transfected cells; host or cells: CHO (M3-CHO)
Method in brief: as §1

M4 muscarinic receptor = molecular target: T4, M4 muscarinic receptor (Homo sapiens, UniProt P08173); experiment: Functional mobilization of intracellular calcium (FLIPR), M4-CHO cells; details: for Emax: 100% efficacy = maximum response obtained with the Carbachol control; for M4 Activity: M4-CHO cells, calcium mobilization (FLIPR)
T4 construct: expressed in transfected cells; host or cells: CHO (M4-CHO)
T4 sequence (P08173 1-479): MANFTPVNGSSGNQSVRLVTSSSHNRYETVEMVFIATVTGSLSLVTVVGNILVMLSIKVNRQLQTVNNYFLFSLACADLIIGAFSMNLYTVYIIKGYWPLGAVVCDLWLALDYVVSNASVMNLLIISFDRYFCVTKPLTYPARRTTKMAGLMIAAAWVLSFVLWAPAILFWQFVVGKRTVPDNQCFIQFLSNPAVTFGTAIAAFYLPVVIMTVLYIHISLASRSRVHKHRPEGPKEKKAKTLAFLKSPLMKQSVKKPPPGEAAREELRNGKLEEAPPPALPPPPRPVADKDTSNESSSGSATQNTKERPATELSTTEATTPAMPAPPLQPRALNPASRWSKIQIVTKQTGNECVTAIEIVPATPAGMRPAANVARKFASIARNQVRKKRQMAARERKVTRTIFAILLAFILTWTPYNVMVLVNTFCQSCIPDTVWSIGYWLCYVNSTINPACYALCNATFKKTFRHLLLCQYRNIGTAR
Method in brief: as §1

T3 sequence (P20309 whole entry): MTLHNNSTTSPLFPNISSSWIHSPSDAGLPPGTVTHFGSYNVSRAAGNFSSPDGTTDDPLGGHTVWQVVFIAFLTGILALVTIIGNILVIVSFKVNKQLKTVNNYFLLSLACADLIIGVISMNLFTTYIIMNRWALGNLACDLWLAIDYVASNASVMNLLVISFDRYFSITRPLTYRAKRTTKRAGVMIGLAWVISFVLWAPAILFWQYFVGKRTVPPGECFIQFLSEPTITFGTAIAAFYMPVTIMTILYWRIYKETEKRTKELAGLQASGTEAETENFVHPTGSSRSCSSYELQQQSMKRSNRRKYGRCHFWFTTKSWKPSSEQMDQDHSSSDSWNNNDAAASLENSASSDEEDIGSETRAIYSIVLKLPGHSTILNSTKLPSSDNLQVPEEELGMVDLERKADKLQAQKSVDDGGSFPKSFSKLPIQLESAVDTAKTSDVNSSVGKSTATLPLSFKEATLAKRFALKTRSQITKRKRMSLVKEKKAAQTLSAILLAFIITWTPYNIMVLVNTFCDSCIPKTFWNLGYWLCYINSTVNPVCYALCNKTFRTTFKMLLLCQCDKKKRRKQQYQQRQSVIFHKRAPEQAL

Compound | Emax (M1 muscarinic receptor) [%] | M1 Activity (M1 muscarinic receptor) | Emax (M2 muscarinic receptor) [%] | M2 Activity (M2 muscarinic receptor) | Emax (M3 muscarinic receptor) [%] | M3 Activity (M3 muscarinic receptor) | Emax (M4 muscarinic receptor) [%] | M4 Activity (M4 muscarinic receptor)
COc1ccc(C(C)=O)cc1C1CCN([C@H]2C[C@H]3CC[C@H]2C3)CC1 [Compound 321] | < 25 | + (activity was measured to be greater than 5.0 μM) | < 25 | + (activity was measured to be greater than 5.0 μM) | < 25 | + (activity was measured to be greater than 5.0 μM) | < 25 | + (activity was measured to be greater than 5.0 μM)
CCOC(=O)N1C2CCC1CC(N1CCC(c3cc(OC)cc(F)c3F)CC1)C2 (stereo not drawn) [Compound 322] | 25 to 100 | +++ (activity was measured to be less than 1.0 μM) | < 25 | ++ (activity was measured to be from 1.0 μM to 5.0 μM) | < 25 | + (activity was measured to be greater than 5.0 μM) | 25 to 100 | +++ (activity was measured to be less than 1.0 μM)
COc1ccc(-c2ccc(C(=O)Nc3nccs3)cc2)cc1C1CCN(C2CCCCC2)CC1 [Compound 323] | < 25 | + (activity was measured to be greater than 5.0 μM) | < 25 | + (activity was measured to be greater than 5.0 μM) | < 25 | + (activity was measured to be greater than 5.0 μM) | 25 to 100 | ++ (activity was measured to be from 1.0 μM to 5.0 μM)
CCC1(O)CCC(N2CCC(c3cc(Cl)ccc3OC)CC2)CC1 (stereo not drawn) [Compound 324] | < 25 | + (activity was measured to be greater than 5.0 μM) | < 25 | + (activity was measured to be greater than 5.0 μM) | < 25 | + (activity was measured to be greater than 5.0 μM) | 25 to 100 | +++ (activity was measured to be less than 1.0 μM)
COc1ccc(C(C)(C)C)cc1C1CCN([C@@H]2C[C@@H]3CC[C@H]2C3)CC1 [Compound 325, 1-((1S,2R,4R)-bicyclo[2.2.1]heptan-2-yl)-4-(5-tert-butyl-2-methoxy-phenyl) piperidine] | 25 to 100 | ++ (activity was measured to be from 1.0 μM to 5.0 μM) | 25 to 100 | + (activity was measured to be greater than 5.0 μM) | 25 to 100 | + (activity was measured to be greater than 5.0 μM) | 25 to 100 | ++ (activity was measured to be from 1.0 μM to 5.0 μM)
COc1ccc(Cl)cc1C1(F)CCN(CC2CC3CCC2C3)CC1 (stereo not drawn) [Compound 326] | 25 to 100 | + (activity was measured to be greater than 5.0 μM) | 25 to 100 | + (activity was measured to be greater than 5.0 μM) | < 25 | + (activity was measured to be greater than 5.0 μM) | 25 to 100 | ++ (activity was measured to be from 1.0 μM to 5.0 μM)
CCCC1CCC(N2CCC(F)(c3cc(F)ccc3OC)CC2)CC1 (stereo not drawn) [Compound 327] | 25 to 100 | ++ (activity was measured to be from 1.0 μM to 5.0 μM) | 25 to 100 | + (activity was measured to be greater than 5.0 μM) | < 25 | + (activity was measured to be greater than 5.0 μM) | 25 to 100 | ++ (activity was measured to be from 1.0 μM to 5.0 μM)
CNC(=O)c1ccc(-c2ccc(OC)c(C3CCN(C4C[C@H]5CC[C@H]4C5)CC3)c2)cc1Cl (stereo partly drawn) [Compound 328] | < 25 | + (activity was measured to be greater than 5.0 μM) | < 25 | + (activity was measured to be greater than 5.0 μM) | < 25 | + (activity was measured to be greater than 5.0 μM) | 25 to 100 | ++ (activity was measured to be from 1.0 μM to 5.0 μM)
Cc1ccc(C)c(C2CCN(CC3CC4C=CC3C4)CC2)c1 (stereo not drawn) [Compound 329] | 25 to 100 | + (activity was measured to be greater than 5.0 μM) | < 25 | + (activity was measured to be greater than 5.0 μM) | – | + (activity was measured to be greater than 5.0 μM) | 25 to 100 | ++ (activity was measured to be from 1.0 μM to 5.0 μM)
CCOC(=O)N1C2CCC1CC(N1CCC(c3cc(F)ccc3OC)CC1)C2 (stereo not drawn) [Compound 330] | 25 to 100 | +++ (activity was measured to be less than 1.0 μM) | 25 to 100 | +++ (activity was measured to be less than 1.0 μM) | < 25 | + (activity was measured to be greater than 5.0 μM) | 25 to 100 | +++ (activity was measured to be less than 1.0 μM)
COc1ccc(Cl)cc1C1CCN(C2CCC3(CC2)OCCO3)CC1 [Compound 331, 4-(5-chloro-2-methoxyphenyl)-1-(1,4-dioxaspiro[4.5]decan-8-yl)piperidine] | 25 to 100 | + (activity was measured to be greater than 5.0 μM) | < 25 | + (activity was measured to be greater than 5.0 μM) | < 25 | + (activity was measured to be greater than 5.0 μM) | 25 to 100 | +++ (activity was measured to be less than 1.0 μM)
COc1ccc(-c2ccc(S(=O)(=O)N3CCCC3)cc2)cc1C1CCN(C2CCCCC2)CC1 [Compound 332] | 25 to 100 | + (activity was measured to be greater than 5.0 μM) | < 25 | + (activity was measured to be greater than 5.0 μM) | < 25 | + (activity was measured to be greater than 5.0 μM) | 25 to 100 | + (activity was measured to be greater than 5.0 μM)
Cc1c(C2CCN(C3CCOCC3)CC2)cccc1C(F)(F)F [Compound 333] | < 25 | + (activity was measured to be greater than 5.0 μM) | < 25 | + (activity was measured to be greater than 5.0 μM) | < 25 | + (activity was measured to be greater than 5.0 μM) | 25 to 100 | ++ (activity was measured to be from 1.0 μM to 5.0 μM)
CCOC(=O)N1C2CCC1CC(N1CCC(F)(c3cc(F)ccc3OC)CC1)C2 (stereo not drawn) [Compound 334] | 25 to 100 | +++ (activity was measured to be less than 1.0 μM) | < 25 | + (activity was measured to be greater than 5.0 μM) | < 25 | + (activity was measured to be greater than 5.0 μM) | 25 to 100 | +++ (activity was measured to be less than 1.0 μM)
